Results taken from the NIST ThermoML archive (doi:10.1021/je0500025).
Counter-ions that a name gives are not always drawn. ± gives the expanded uncertainty stated by the source.

Key:
[1] = xn = mol fraction of the nth substance listed; conditions: 101 kPa, Liquid
[2] = 101 kPa, Liquid

mass density ([1]; 293.15 K, x1 = 1) [kg/m3]	viscosity ([1]; 293.15 K, x1 = 1) [mPa·s]	mass density ([1]; 303.15 K, x1 = 1) [kg/m3]	viscosity ([1]; 303.15 K, x1 = 1) [mPa·s]	mass density ([1]; 313.15 K, x1 = 1) [kg/m3]	viscosity ([1]; 313.15 K, x1 = 1) [mPa·s]	mass density ([2]; 293.15 K) [kg/m3]	viscosity ([2]; 293.15 K) [mPa·s]	mass density ([2]; 303.15 K) [kg/m3]	viscosity ([2]; 303.15 K) [mPa·s]	mass density ([2]; 313.15 K) [kg/m3]	viscosity ([2]; 313.15 K) [mPa·s]	Compound	mass density ([1]; 293.15 K, x2 = 0) [kg/m3]	viscosity ([1]; 293.15 K, x2 = 0) [mPa·s]	mass density ([1]; 303.15 K, x2 = 0) [kg/m3]	viscosity ([1]; 303.15 K, x2 = 0) [mPa·s]	mass density ([1]; 313.15 K, x2 = 0) [kg/m3]	viscosity ([1]; 313.15 K, x2 = 0) [mPa·s]
897.84 ± 3	0.901 ± 0.029	891.78 ± 3.1	0.77 ± 0.025	884.35 ± 3.2	0.666 ± 0.021	–	–	–	–	–	–	CCC/C=C/COC(C)=O [(E)-2-hexenyl acetate] + CCO	–	–	–	–	–	–
900.82 ± 2.9	0.893 ± 0.028	893.14 ± 3	0.763 ± 0.024	886.19 ± 3.2	0.66 ± 0.021	–	–	–	–	–	–	CC/C=C\CCOC(C)=O [(Z)-3-hexenyl acetate] + CCO	–	–	–	–	–	–
–	–	–	–	–	–	909.15 ± 3	0.599 ± 0.021	906.6 ± 3	0.527 ± 0.019	903.17 ± 3.1	0.469 ± 0.017	CC/C=C\CCOC=O [(Z)-3-hexenyl formate]	–	–	–	–	–	–
909.15 ± 3	0.599 ± 0.021	906.6 ± 3	0.527 ± 0.019	903.17 ± 3.1	0.469 ± 0.017	–	–	–	–	–	–	CC/C=C\CCOC=O [(Z)-3-hexenyl formate] + CCO	–	–	–	–	–	–
–	–	–	–	–	–	–	–	–	–	–	–	CCO [ethanol] + CC/C=C\CCOC=O	788.24 ± 4.7	1.16 ± 0.037	780.73 ± 4.8	0.968 ± 0.031	771.98 ± 5	0.81 ± 0.026
–	–	–	–	–	–	–	–	–	–	–	–	CCO [ethanol] + CCC/C=C/COC(C)=O	788.24 ± 4.7	1.16 ± 0.037	780.73 ± 4.8	0.968 ± 0.031	771.98 ± 5	0.81 ± 0.026
–	–	–	–	–	–	900.82 ± 2.9	0.893 ± 0.028	893.14 ± 3	0.763 ± 0.024	886.19 ± 3.2	0.66 ± 0.021	CC/C=C\CCOC(C)=O [(Z)-3-hexenyl acetate]	–	–	–	–	–	–
–	–	–	–	–	–	897.84 ± 3	0.901 ± 0.029	891.78 ± 3.1	0.77 ± 0.025	884.35 ± 3.2	0.666 ± 0.021	CCC/C=C/COC(C)=O [(E)-2-hexenyl acetate]	–	–	–	–	–	–
–	–	–	–	–	–	–	–	–	–	–	–	CCO [ethanol] + CCCCOC(C)=O	788.24 ± 4.7	1.16 ± 0.037	780.73 ± 4.8	0.968 ± 0.031	771.98 ± 5	0.81 ± 0.026
–	–	–	–	–	–	–	–	–	–	–	–	CCO [ethanol] + CC/C=C\CCOC(C)=O	788.24 ± 4.7	1.16 ± 0.037	780.73 ± 4.8	0.968 ± 0.031	771.98 ± 5	0.81 ± 0.026

Compound	mass density ([1]; 293.15 K, x1 = 1) [kg/m3]	viscosity ([1]; 293.15 K, x1 = 1) [mPa·s]	mass density ([1]; 303.15 K, x1 = 1) [kg/m3]	viscosity ([1]; 303.15 K, x1 = 1) [mPa·s]	mass density ([1]; 313.15 K, x1 = 1) [kg/m3]	viscosity ([1]; 313.15 K, x1 = 1) [mPa·s]	mass density ([2]; 293.15 K) [kg/m3]	viscosity ([2]; 293.15 K) [mPa·s]	mass density ([2]; 303.15 K) [kg/m3]	viscosity ([2]; 303.15 K) [mPa·s]	mass density ([2]; 313.15 K) [kg/m3]	viscosity ([2]; 313.15 K) [mPa·s]	mass density ([1]; 293.15 K, x2 = 0) [kg/m3]	viscosity ([1]; 293.15 K, x2 = 0) [mPa·s]	mass density ([1]; 303.15 K, x2 = 0) [kg/m3]	viscosity ([1]; 303.15 K, x2 = 0) [mPa·s]	mass density ([1]; 313.15 K, x2 = 0) [kg/m3]	viscosity ([1]; 313.15 K, x2 = 0) [mPa·s]
CCCCOC(C)=O [butyl ethanoate]	–	–	–	–	–	–	881.04 ± 3.2	0.732 ± 0.023	871.3 ± 3.4	0.628 ± 0.02	861.84 ± 3.5	0.546 ± 0.018	–	–	–	–	–	–
CCCCOC(C)=O [butyl ethanoate] + CCO	881.04 ± 3.2	0.732 ± 0.023	871.3 ± 3.4	0.628 ± 0.02	861.84 ± 3.5	0.546 ± 0.018	–	–	–	–	–	–	–	–	–	–	–	–
CCO [ethanol]	–	–	–	–	–	–	788.24 ± 4.7	1.16 ± 0.037	780.73 ± 4.8	0.968 ± 0.031	771.98 ± 5	0.81 ± 0.026	–	–	–	–	–	–
